≈ marks a conversion by molar mass, not a printed value.
How the values were obtained:
Type in all cases: cell-based
[1] = test system: MCF-7 human breast cancer cells; assay: Crystal violet cell growth assay; conditions: MCF7, MCF-7 cells, 72 hours, read-out: Cr. Violet (IC50)
Experimental: The crystal violet assay measures cell growth but not cytotoxicity. This assay employs crystal violet staining of fixed cells in 96-well plates with subsequent solubilization and measurement of OD490 on a spectrophotometer. The OD490 corresponds to cell growth per unit time measured. Cells are treated with the compounds of interest or vehicle controls and IC50 for each compound is computed.
To measure the cytotoxicity of specific compounds against cancer cells, 5×10^4 MCF-7 human breast cancer cells, obtained from the American Type Culture Collection are plated per well in 24 well plates in DMEM medium with 10% fetal bovine serum, penicillin, and streptomycin. Following overnight culture at 37° C. and 5% CO2, the compounds to be tested, dissolved in DMSO, are added to the wells in 1 μl volume at the following concentrations: 50, 40, 30, 20, and 10 μg/ml in triplicate. Additional concentrations are tested if required. 1 μl of DMSO is added to triplicate wells are the vehicle control. C75 is run at 10, and 5 μg/ml in triplicate as positive controls.
After 72 hours of incubation, cells are stained with 0.5 ml of Crystal Violet stain (0.5% in 25% methanol) in each well. After 10 minutes, wells are rinsed, air dried, and then solubilized with 0.5 ml 10% sodium dodecylsulfate with shaking for 2 hours. Following transfer of 100 μl from each well to a 96-well plate, plates are read at OD490 on a Molecular Devices SpectraMax Plus Spectrophotometer Average OD490 values are computed using SOFTmax Pro Software (Molecular Devices) and IC50 values are determined by linear regression analysis using Prism version 3.02 (Graph Pad Software, San Diego).

OV = assay: XTT cytotoxicity assay (OV); conditions: (OV) cells
Experimental: The XTT assay is a non-radioactive alternative for the [^51Cr] release cytotoxicity assay. XTT is a tetrazolium salt that is reduced to a formazan dye only by metabolically active, viable cells. The reduction of XTT is measured spectrophotometrically as OD490-OD650. After 72 hours of incubation, cells are incubated for 4 hours with the XTT reagent as per manufacturer's instructions (Cell Proliferation Kit 11 (XTT) Roche). Plates are read at OD490 and OD650 on a Molecular Devices SpectraMax Plus Spectrophotometer. Three wells containing the XTT reagent without cells serve as the plate blank. XTT data are reported as OD490-OD650. Averages and standard error of the mean are computed using SOFTmax Pro software (Molecular Dynamics). The IC50 for the compounds is defined as the concentration of drug leading to a 50% reduction in OD490-OD650 compared to controls. The OD490-OD650 are computed by the SOFTmax PRO software (Molecular Devices) for each compound concentration. IC50 is calculated by linear regression, plotting the FAS activity as percent of control versus drug concentrations. Linear regression, best-fit line, r^2, and 95% confidence intervals are determined using Prism Version 3.0 (Graph Pad Software).

[2] = test system: fatty acid synthesis pathway activity in MCF-7 human breast cancer cells; assay: [14C]acetate incorporation into total lipids; conditions: MCF-7 cells, [14C]acetate into lipids; for IC50: Homo sapiens, MCF7
Experimental: This assay measures the incorporation of [^14C]acetate into total lipids and is a measure of fatty acid synthesis pathway activity in vitro. It is utilized to measure inhibition of fatty acid synthesis in vitro.
MCF-7 human breast cancer cells cultured as above, are plated at 5×10^4 cells per well in 24-well plates. Following overnight incubation, the compounds to be tested, solubilized in DMSO, are added at 5, 10, and 20 μg/ml in triplicate, with lower concentrations tested if necessary. DMSO is added to triplicate wells for a vehicle control. C75 is run at 5 and 10 μg/ml in triplicate as positive controls. After 4 hours of incubation, 0.25 μCi of [^14C]acetate (10 μl volume) is added to each well.
After 2 hours of additional incubation, medium is aspirated from the wells and 800 μl of chloroform:methanol (2:1) and 700 μl of 4 mM MgCl2 is added to each well. Contents of each well are transferred to 1.5 Eppendorf tubes, and spun at full-speed for 2 minutes in a high-speed Eppendorf Microcentrifuge 5415D. After removal of the aqueous (upper) layer, an additional 700 μl of chloroform:methanol (2:1) and 500 μl of 4 mM MgCl2 are added to each tube and then centrifuged for 1 minutes as above. The aqueous layer is removed with a Pasteur pipette and discarded. An additional 400 μl of chloroform:methanol (2:1) and 200 μl of 4 mM MgCl2 are added to each tube, then centrifuged and aqueous layer is discarded. The lower (organic) phase is transferred into a scintillation vial and dried at 40° C. under N2 gas. Once dried, 3 ml of scintillant (APB #NBC5104) is added and vials are counted for ^14C. The Beckman Scintillation counter calculates the average cpm values for triplicates.
The IC50 for the compounds is defined as the concentration of drug leading to a 50% reduction in [^14C]acetate incorporation into lipids compared to controls. This is determined by plotting the average cpm for each inhibitor concentration tested, performing linear regression and computing the best-fit line, r^2 values, and 95% confidence intervals. The average cpm values are computed by the Beckman scintillation counter (Model LS6500) for each compound concentration. Computation of linear regression, best-fit line, r^2, and 95% confidence intervals are calculated using Prism Version 3.0 (Graph Pad Software).

SMILES | IC50 [1] [mg/L] | IC50 (OV) [mg/L] | IC50 [2] [mg/L] | 14C (IC50) [2]
COC(=O)c1sc(C(=O)NNc2ccc(Cl)cc2)cc1O | 18.1 ± 4.4 (≈ 55.4 µM) | 50 ± 5 (≈ 153 µM) | 25.2 (≈ 77.1 µM) | 
CCCCCCCCNNC(=O)c1cc(O)c(C(=O)OC)s1 | 31.7 (≈ 96.5 µM) | 77.1 (≈ 235 µM) | 41.2 (≈ 125 µM) | 
CCCCCCCCNC(=O)c1cc(O)cs1 | 8.5 ± 2.1 (≈ 33.3 µM) | 9.5 (≈ 37.2 µM) | 17.6 ± 1.9 (≈ 68.9 µM) | 
C=CCNC(=O)c1cc(O)c(C(=O)OC)s1 | > 80 | > 80 |  | Neg
CCCCCCCCNC(=O)c1cc(O)c(C(=O)OC)s1 | 38.8 (≈ 124 µM) | 37.1 (≈ 118 µM) | 20.5 (≈ 65.4 µM) | 
COC(=O)c1sc(C(=O)O)cc1O | > 80 | > 80 | 55.2 (≈ 273 µM) | 
